{
  "source": "paper PMC3726613",
  "about": "“Bacterial Cyclic AMP-Phosphodiesterase Activity Coordinates Biofilm Formation” (PLoS ONE, 2013)",
  "target": "T1, CpdS (SMA3506), CpdS-His8 (Serratia ureilytica, UniProt A0A9X9G1H8)",
  "T1 construct": "gene cpdA",
  "T1 sequence (A0A9X9G1H8 entry or part of it)": "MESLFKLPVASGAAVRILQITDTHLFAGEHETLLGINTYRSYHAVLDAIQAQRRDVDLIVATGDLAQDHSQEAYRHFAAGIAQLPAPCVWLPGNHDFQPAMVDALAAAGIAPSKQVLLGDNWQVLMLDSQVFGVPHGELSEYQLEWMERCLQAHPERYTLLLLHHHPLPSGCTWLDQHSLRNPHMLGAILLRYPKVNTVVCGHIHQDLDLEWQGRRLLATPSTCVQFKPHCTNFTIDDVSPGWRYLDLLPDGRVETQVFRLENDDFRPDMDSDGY",
  "assay": "bis-pNPP hydrolysis assay",
  "format": "biochemical",
  "details": "read-out: 50% reduction in the activity",
  "data": [
    {"smiles": "CC(C)Cn1c(=O)n(C)c(=O)c2[nH]cnc21", "note": "[IBMX]", "values": [
      {"measurement": "IC50", "result": 4.8, "unit": "mM"}
    ]}
  ]
}
